Blank lines part the entries; values can stand above or below the compound they belong to.
What was measured:
[1] = molecular target: T1, neonatal Fc receptor (FcRn) α-chain, extracellular domain (FcRnECD) (Homo sapiens, UniProt P55899+P61769); experiment: affinity measurement (SPR implied); assay type: binding
T1 construct: gene FCGRT; extracellular domain (ECD) (amino acids 1–297) of human FcRn α-chain, with human β2m; with β2-microglobulin (β2m, B2M)

[2] = molecular target: T1, neonatal Fc receptor (FcRn) α-chain, extracellular domain (FcRnECD); experiment: SPR Kd; X-ray crystal structure; […] CPMG and STD NMR fragment screen; assay type: binding
[3] = molecular target: T1, neonatal Fc receptor (FcRn) α-chain, extracellular domain (FcRnECD); experiment: SPR Kd; X-ray crystal structure; MAS NMR chemical-shift perturbations; assay type: binding
[4] = molecular target: soluble extracellular domain of the neonatal Fc receptor (FcRnECD), heterodimer of α-chain and β2m, from insect cells (human); experiment: crystal structure; FcRnECD from insect cells; crystals at pH 3 (PEG 6000, citric acid/ammonium citrate) and at pH 8.5 (Bis-Tris propane, NaI, PEG 3350); compounds soaked into pH 3 crystals; two heterodimers in the asymmetric unit

Kd [1]: 2.4 µM
Compound: CC(=O)C1=C(C)Nc2ncnn2C1c1cc(F)cc(F)c1 (racemic) [1-[7-(3,5-Difluorophenyl)-5-methyl-4,7-dihydro-[1,2,4]triazolo[1,5-a]pyrimidin-6-yl]ethanone]

Kd [2]: ~80 µM
Compound: CC(=O)C1=C(C)Nc2ncnn2C1c1cccc(F)c1 (racemic) [UCB-FcRn-84, 1-[7-(3-fluorophenyl)-5-methyl-4,7-dihydro-[1,2,4]triazolo[1,5-a]pyrimidin-6-yl]ethanone]

Kd [3]: 2.4 µM
Compound: COC(=O)C1=C(c2cccnc2)Nc2ncnn2C1c1cc(F)cc(F)c1 (stereo not shown) [UCB-FcRn-303, Methyl 7-(3,5-difluorophenyl)-5-(3-pyridyl)-4,7-dihydro-[1,2,4]triazolo[1,5-a]pyrimidine-6-carboxylate]

stoichiometry N [4]: 2
Compound: soluble extracellular domain of the neonatal Fc receptor (FcRnECD), heterodimer of α-chain and β2m, from insect cells (complex)

— paper PMC5983862, “Insight into small molecule binding to the neonatal Fc receptor by X-ray crystallography and 100 kHz magic-angle-spinning NMR” (PLoS Biology, 2018)
